Source: ChEMBL document CHEMBL1130211, “Synthesis and anti-hepatitis B virus activity of 9-(2-deoxy-2-fluoro-beta-L-arabinofuranosyl) purine nucleosides” (J Med Chem, 1997)

Legend:
Assay type in all cases: functional, cell-based
Conditions in all cases: Homo sapiens
[1] = test system: HepG2; test: The cytotoxicity against HepG2 2.2.15 cells expressed as IC50
[2] = test system: HepG2; test: compound was tested in vitro for anti HBV activity in HepG2 2.2.15 cells
[3] = test system: HepG2; test: The cytotoxicity against 2.2.15 cells expressed as IC50
[4] = test system: CCRF-CEM; test: The cytotoxicity against CEM cells

| SMILES | IC50 [1] [µM] | EC50 [2] [µM] | IC50 [3] [µM] | IC50 [4] [µM] |
| --- | --- | --- | --- | --- |
| OC[C@@H]1O[C@H](n2cnc3cncnc32)[C@H](F)[C@H]1O | > 200 | > 10 |  |  |
| OC[C@@H]1O[C@H](n2cnc3c(S)ncnc32)[C@H](F)[C@H]1O |  | > 10 | > 200 |  |
| CN(C)c1ncnc2c1ncn2[C@H]1O[C@@H](CO)[C@H](O)[C@H]1F | > 200 | > 10 |  |  |
| CNc1ncnc2c1ncn2[C@H]1O[C@@H](CO)[C@H](O)[C@H]1F | > 200 | > 10 |  |  |
| Nc1nc(Cl)nc2c1ncn2[C@@H]1O[C@H](CO)[C@@H](O)[C@H]1F |  | > 10 | > 200 |  |
| OC[C@H]1O[C@@H](n2cnc3c(O)ncnc32)[C@H](F)[C@@H]1O |  | 8 | > 200 | > 100 |
| Nc1nc(N)c2ncn([C@@H]3O[C@H](CO)[C@@H](O)[C@H]3F)c2n1 |  | > 10 | > 180 |  |
| OC[C@H]1O[C@@H](n2cnc3c(NC4CC4)ncnc32)[C@H](F)[C@@H]1O | > 200 | > 10 |  |  |
| Nc1ncnc2c1ncn2[C@@H]1O[C@H](CO)[C@@H](O)[C@H]1F [2'-BETA-FLUORO-2',3'-DEOXYADENOSINE] | > 200 | 1.5 |  | 90 |
| Nc1nc(O)c2ncn([C@@H]3O[C@H](CO)[C@@H](O)[C@@H]3F)c2n1 [F-ARAG] |  | > 10 | > 200 | > 100 |
